Test results as given in US20030134859A1 (SANKYO COMPANY, LIMITED, priority 2000, published 2003).
pIC50: −log10 of the molar value. Counter-ions that a name gives are not always drawn.

Target: T1, human PPAR γ 2 (Homo sapiens, UniProt P37231)
T1 construct: expressed in transfected cells; host or cells: human osteosarcoma MG63, transiently co-transfected with pSG5-hPPARg and the reporter pGV-P2-PPRE
T1 sequence (P37231 1-505): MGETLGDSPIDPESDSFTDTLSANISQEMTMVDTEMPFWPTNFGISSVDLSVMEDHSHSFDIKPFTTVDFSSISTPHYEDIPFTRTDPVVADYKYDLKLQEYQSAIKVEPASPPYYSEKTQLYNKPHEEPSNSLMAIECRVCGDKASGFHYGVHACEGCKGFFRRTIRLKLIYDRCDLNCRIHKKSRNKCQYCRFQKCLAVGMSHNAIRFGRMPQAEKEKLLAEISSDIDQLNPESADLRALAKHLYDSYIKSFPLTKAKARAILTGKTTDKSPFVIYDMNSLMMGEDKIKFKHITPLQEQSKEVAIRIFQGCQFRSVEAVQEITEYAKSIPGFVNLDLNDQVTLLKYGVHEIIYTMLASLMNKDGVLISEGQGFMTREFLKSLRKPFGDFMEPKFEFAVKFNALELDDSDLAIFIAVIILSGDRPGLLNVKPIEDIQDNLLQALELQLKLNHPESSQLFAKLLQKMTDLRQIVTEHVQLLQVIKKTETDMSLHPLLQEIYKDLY
Experiment: Inhibitory activity against PPAR γ transcription in the presence of agonist compound A, luciferase reporter
Assay type: cell-based
Details: in the presence of 10 nM compound A (agonist); MG63 cells transfected with pSG5-hPPARg and pGV-P2-PPRE; 24 hr

Row | SMILES | pIC50
1 | N#Cc1ccc(NC(=O)c2cc([N+](=O)[O-])ccc2Cl)cc1 [Example 20, N-(4-Cyanophenyl)-(2-chloro-5-nitrophenyl)carboxamide] | 7.82
2 | Cc1cccc(-c2csc(NC(=O)c3cc([N+](=O)[O-])ccc3Cl)n2)c1 [Example 40, N-[4-(3-Methylphenyl)thiazol-2-yl)-(2-chloro-5-nitrophenyl)carboxamide] | 7.24
3 | CCc1ccc(-c2csc(NC(=O)c3cc([N+](=O)[O-])ccc3Cl)n2)cc1 [Example 44, N-[4-(4-Ethylphenyl)thiazol-2-yl]-(2-chloro-5-nitrophenyl)carboxamide] | 7.08
4 | O=C(Nc1cccnc1)c1cc([N+](=O)[O-])ccc1Cl [Example 50, N-(3-Pyridyl)-(2-chloro-5-nitrophenyl)carboxamide] | 6.96
5 | Cc1ccnc(NC(=O)c2cc([N+](=O)[O-])ccc2Cl)n1 [Example 65, N-(4-Methylpyrimidin-2-yl)-(2-chloro-5-nitrophenyl)carboxamide] | 7.43
6 | CC(C)(C)OC(=O)Nc1ccc(-c2ccc(NC(=O)c3cc([N+](=O)[O-])ccc3Cl)cc2)cc1 [Example 87, N-[4-[4-(tert-Butoxycarbonylamino)phenyl]phenyl]-(2-chloro-5-nitrophenyl)carboxamide] | 7.48
7 | CCCCCCNc1ccc(-c2ccc(NC(=O)c3cc([N+](=O)[O-])ccc3Cl)cc2)cc1 [Example 195, N-[4-[4-(N-Hexylamino)phenyl]phenyl]-(2-chloro-5-nitrophenyl)carboxamide] | 7.74
8 | CCCCCCCCNc1ccc(-c2ccc(NC(=O)c3cc([N+](=O)[O-])ccc3Cl)cc2)cc1 [Example 219, N-[4-[4-(N-Octylamino)phenyl]phenyl]-(2-chloro-5-nitrophenyl)carboxamide] | 8.08
9 | CCCCCCCCN(CCCCCC)c1ccc(-c2ccc(NC(=O)c3cc([N+](=O)[O-])ccc3Cl)cc2)cc1 [Example 220, N-[4-[4-(N-Hexyl-N-octylamino)phenyl]phenyl]-(2-chloro-5-nitrophenyl)carboxamide mono-hydrochloride] | 7.74
10 | CCCCCCCCN(CCCC)c1ccc(-c2ccc(NC(=O)c3cc([N+](=O)[O-])ccc3Cl)cc2)cc1 [Example 222, N-[4-[4-(N-Butyl-N-octylamino)phenyl]phenyl]-(2-chloro-5-nitrophenyl)carboxamide] | 6.80
11 | CCCCCCCCN(CCCC)c1ccc(-c2ccc(NC(=O)c3cc([N+](=O)[O-])ccc3Cl)cc2)cc1.Cl [Example 223, N-[4-[4-(N-Butyl-N-octylamino)phenyl]phenyl]-(2-chloro-5-nitrophenyl)carboxamide mono-hydrochloride] | 7.05
12 | CCCCCCCCN(CC)c1ccc(-c2ccc(NC(=O)c3cc([N+](=O)[O-])ccc3Cl)cc2)cc1 [Example 225, N-[4-[4-(N-Ethyl-N-octylamino)phenyl]phenyl]-(2-chloro-5-nitrophenyl)carboxamide] | 6.72
13 | O=C(Nc1ccc(N2CCN(C(=O)c3ccncc3)CC2)cc1)c1cc([N+](=O)[O-])ccc1Cl [Example 228, N-[4-[4-(Pyridin-4-ylcarbonyl)piperazin-1-yl]phenyl]-(2-chloro-5-nitrophenyl)carboxamide] | 6.89
14 | O=C(Nc1ccc(CCO)cc1)c1cc([N+](=O)[O-])ccc1Cl [Example 230, N-[4-(2-Hydroxyethyl)phenyl]-(2-chloro-5-nitrophenyl)carboxamide] | 7.72
15 | Nc1nc(-c2cccc(NC(=O)c3cc([N+](=O)[O-])ccc3Cl)c2)cs1 [Example 233, N-[3-(2-Amiothiazol-4-yl)phenyl]-(2-chloro-5-nitrophenyl)carboxamide] | 7.55
16 | CC(C)(C)OC(=O)Nc1cccc(-c2csc(NC(=O)c3cc([N+](=O)[O-])ccc3Cl)n2)c1 [Example 234, N-[4-(3-tert-Butoxycarbonylaminophenyl)thiazol-2-yl]-(2-chloro-5-nitrophenyl)carboxamide] | 7.72
17 | CS(=O)(=O)N(c1ccc(-c2ccc(NC(=O)c3cc([N+](=O)[O-])ccc3Cl)cc2)cc1)S(C)(=O)=O [Example 235, N-[4-[4-(N,N-Dimethanesulfonylamino)phenyl]phenyl]-(2-chloro-5-nitrophenyl)carboxamide] | 7.72
18 | O=C(Nc1ccc(CCNC(=S)Nc2cccnc2)cc1)c1cc([N+](=O)[O-])ccc1Cl [Example 273, N-[4-[2-(Pyridin-3-yl)aminothiocarbonylaminoethyl]phenyl]-(2-chloro-5-nitrophenyl)carboxamide] | 7.89

The remaining lines, values ahead:

Row | pIC50 | SMILES
19 | 7.15 | Cc1ccc2nc(-c3ccc(NC(=O)c4cc([N+](=O)[O-])ccc4Cl)cc3)sc2c1 [Example 10, N-[4-(6-Methylbenzothiazol-2-yl)phenyl]-(2-chloro-5-nitrophenyl)carboxamide]
20 | 7.08 | Cc1cc(Cl)nc(NC(=O)c2cc([N+](=O)[O-])ccc2Cl)n1 [Example 78, N-(4-Chloro-6-methylpyrimidin-2-yl)-(2-chloro-5-nitrophenyl)carboxamide]
21 | 6.00 | CCCCCCN(C)c1ccc(-c2ccc(NC(=O)c3cc([N+](=O)[O-])ccc3Cl)cc2)cc1 [Example 196, N-[4-[4-(N-Hexyl-N-methylamino)phenyl]phenyl]-(2-chloro-5-nitrophenyl)carboxamide]
22 | 6.55 | CCCCCCN(CC)c1ccc(-c2ccc(NC(=O)c3cc([N+](=O)[O-])ccc3Cl)cc2)cc1 [Example 197, N-[4-[4-(N-Ethyl-N-hexylamino)phenyl]phenyl]-(2-chloro-5-nitrophenyl)carboxamide]
23 | 7.10 | CCCCCCCCN(CCC)c1ccc(-c2ccc(NC(=O)c3cc([N+](=O)[O-])ccc3Cl)cc2)cc1 [Example 224, N-[4-[4-(N-Octyl-N-propylamino)phenyl]phenyl]-(2-chloro-5-nitrophenyl)carboxamide]
24 | 7.22 | O=C(Nc1ccc(-n2ccnc2)cc1)c1cccc(NC(=O)c2cc([N+](=O)[O-])ccc2Cl)c1 [Example 231, N-[[3-[4-(Imidazol-1-yl)phenyl]aminocarbonyl]phenyl]-(2-chloro-5-nitrophenyl)carboxamide]
25 | 7.60 | O=C(Nc1ccc(-c2ccc(NC(=S)Nc3ccncc3)cc2)cc1)c1cc([N+](=O)[O-])ccc1Cl [Example 258, N-[4-[4-[(Pyridin-4-yl)aminothiocarbonylamino]phenyl]phenyl]-(2-chloro-5-nitrophenyl)carboxamide]
26 | 7.22 | NCCc1ccc(NC(=O)c2cc([N+](=O)[O-])ccc2Cl)cc1 [Example 267, N-[4-(2-Aminoethyl)phenyl]-(2-chloro-5-nitrophenyl)carboxamide]
